Results: US12195482B1 (Arcus Biosciences, Inc., priority 2022, dated 2025)
pIC50: −log10 of the molar value.

Legend:
Axl = biological target: T1, Axl (Homo sapiens, UniProt P30530); test: Biochemical potency, HTRF KinEASE-TK kinase assay; design: purchased Invitrogen; details: 5 nM AXL, 700 μM ATP
T1 sequence (P30530 26-894): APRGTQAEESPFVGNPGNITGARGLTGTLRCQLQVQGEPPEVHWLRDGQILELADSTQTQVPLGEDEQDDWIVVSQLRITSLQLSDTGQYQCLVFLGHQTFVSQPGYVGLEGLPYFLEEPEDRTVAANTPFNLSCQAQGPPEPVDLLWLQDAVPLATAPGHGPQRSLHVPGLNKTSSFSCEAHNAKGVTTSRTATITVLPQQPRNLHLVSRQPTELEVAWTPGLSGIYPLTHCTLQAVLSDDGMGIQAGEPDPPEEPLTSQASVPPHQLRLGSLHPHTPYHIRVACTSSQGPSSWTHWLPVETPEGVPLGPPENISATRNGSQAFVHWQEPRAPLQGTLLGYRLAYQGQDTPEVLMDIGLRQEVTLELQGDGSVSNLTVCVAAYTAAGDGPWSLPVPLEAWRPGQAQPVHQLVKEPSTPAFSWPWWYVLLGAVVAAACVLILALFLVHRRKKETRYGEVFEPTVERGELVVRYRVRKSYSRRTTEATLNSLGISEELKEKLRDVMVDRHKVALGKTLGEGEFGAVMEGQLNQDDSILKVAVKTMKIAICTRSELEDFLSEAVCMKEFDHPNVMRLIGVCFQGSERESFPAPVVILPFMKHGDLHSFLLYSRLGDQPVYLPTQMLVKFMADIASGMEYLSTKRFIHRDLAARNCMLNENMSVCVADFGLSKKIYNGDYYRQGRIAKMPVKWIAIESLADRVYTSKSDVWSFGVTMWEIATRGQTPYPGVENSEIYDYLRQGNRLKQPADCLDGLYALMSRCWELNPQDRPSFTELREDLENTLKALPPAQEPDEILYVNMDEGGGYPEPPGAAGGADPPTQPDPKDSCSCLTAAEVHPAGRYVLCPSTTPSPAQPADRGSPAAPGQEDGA
Protocol: Measurement of Biochemical Compound Potency of Axl Inhibitors
Purified recombinant human AXL, TYRO3 and MER proteins were purchased from Invitrogen™. 10 nM AXL, 2 nM TYRO3 or MER were incubated with varying concentrations of compounds in 50 mM HEPES, pH 7.4, 10 mM MgCl2, 0.01% BSA, 1 mM DTT and 2% DMSO in a total volume of 20 μl in a 384-well microplate (Corning™ #3640) at RT for 1 h. The AXL, TYRO3 and MER enzymatic reaction was initiated by transferring 10 μl of enzyme and compound mixture into 10 μl of 1.6 μM TK Substrate-biotin (HTRF® KinEASE-TK kit, Cisbio) and 1400 μM ATP pre-incubated in 50 mM HEPES, pH 7.4, 10 mM MgCl2, 0.01% BSA, 1 mM DTT in a 384-well microplate (Corning™ #3640) at RT, giving the final reaction conditions: 5 nM AXL, 1 nM TYRO3 or MER, 800 nM TK Substrate-biotin and 700 μM ATP in 50 mM HEPES, pH 7.4, 10 mM MgCl2, 0.01% BSA, 1 mM DTT and 1% DMSO with varying concentrations of compounds. Following 2 h incubation at RT, the AXL, TYRO3 and MER enzymatic reaction was stopped by transfer of 10 μl of reaction into 10 μl of detection mix (400 nM Streptavidin-XL665, 200-fold dilution TK Antibody-Cryptate and detection buffer, HTRF® KinEASE-TK kit, Cisbio) in a white 384-well microplate (Perkin Elmer, OptiPlate 384). After 1 h incubation at RT, the plate was put into a plate reader (Evision) to read at 665/620 nm (acceptor/donor) for HTRF. The value of the DMSO blank (MIN inhibition=100% activity) was used as a negative control. The positive control was established by adding 5 μl of enzyme and DMSO mixture into 10 μl of detection mix followed by addition of 5 μl of TK Substrate-biotin and ATP mixture (MAX inhibition=0% activity). To calculate the percent activity, Equation 1 was used. Ratio665/620 is the value at a given compound concentration: […]

p-AXL = biological target: T2, p-AXL (Homo sapiens, UniProt P30530); test: Axl phosphorylation inhibition ELISA in HEK293T cells transfected with NanoLuc-tagged AXL; type: cell-based; details: 1 h compound incubation, media (OptiMEM)
T2 construct: expressed in transfected cells; host or cells: HEK293T
T2 sequence (P30530 26-894): T1 sequence (P30530 26-894)
Protocol: [formula] Measurement of Axl Phosphorylation Inhibition
The dose-response assays were performed in S-Bio PrimeSurface® 3D culture: Ultra-low Attachment Plates: 384 well, U bottom (#MS-9384UZ) containing 400 nL of 22 serial 2-fold compound dilutions using Bravo and Echo. ELISA assay was performed on Pierce™ streptavidin coated high capacity 384-well white plates (Thermofisher Cat #15505). The plates were coated overnight at 4° C. with 50 μl/well of biotinlyated phospho-tyrosine mouse mAb (Cell Signaling Technology, 9417s).
HEK293T cells were grown in DMEM containing 10% FBS, 1% Pen/Strep, 1% G-Max. A day before the assay, cells were transiently transfected with 6.8 μg of NanoLuc-tagged AXL plasmid DNA and 8 μg of carrier DNA using FuGENE® HD Transfection Reagent (Promega) according to manufacturer's instructions. On the day of the assay, transfected cells were harvested and resuspended in OptiMEM. 70,000 cells/well were added to the compounds containing assay plates. After a gentle mix and a short spin, the plates were incubated at 37° C. After 1 h, the cells were lysed followed by a brief centrifugation and 30 min of shaking at 300 rpm. Meanwhile, the antibody coated plates were brought to room temperature and then were washed ten times in PBS with 0.05% Tween 20 (ELISA-wash buffer). 50 μl/well of cell lysate was transferred to the ELISA plates and shaken for 2 hours. After washing again with the ELISA wash buffer, the samples were diluted with 25 μl of PBS. The captured NanoLuc tagged p-AXL was detected using Nano-Glo® Luciferase Assay System (Promega) and manufacturer's instruction. The luminescence signal was measured using Envision plate reader. IC50 values were determined by fitting the data to a standard 4-parameter logistic equation.

For Cc1cc(F)cnc1-c1ccc(-c2c[nH]c3ncc(-c4ccc5c(c4)CC[C@@H](N4C6COCC4C6)CC5)cc23)nc1 [Example 35, 6-[(7S)-3-[3-[5-(5-Fluoro-3-methylpyridin-2-yl)pyridin-2-yl]-1H-pyrrolo[2,3-b]pyridin-5-yl]-6,7,8,9-tetrahydro-5H-benzo[7]annulen-7-yl]-3-oxa-6-azabicyclo[3.1.1]heptane], the pIC50 (Axl) was > 7.00 and the pIC50 (p-AXL) was > 7.00.

c1cc2c(c(-c3ccc(-c4n[nH]c5ncc(-c6ccc7c(c6)CC[C@@H](N6C8COCC6C8)CC7)cc45)cc3)n1)NCCO2 [Example 150, 6-[(7S)-2-[3-(4-{2H,3H,4H-Pyrido[4,3-b][1,4]oxazin-5-yl}phenyl)-1H-pyrazolo[3,4-b]pyridin-5-yl]-6,7,8,9-tetrahydro-5H-benzo[7]annulen-7-yl]-3-oxa-6-azabicyclo[3.1.1]heptane] was tested, and the pIC50 (Axl) was > 7.00 and the pIC50 (p-AXL) was 6.00 to 7.00.

With CO[C@H]1C[C@@H](N[C@H]2CCc3ccc(-c4cnc5[nH]nc(-c6ccc(-c7ncccc7C)cn6)c5c4)cc3CC2)C1 [Example 108, (7S)-2-(3-{3-Methyl-[2,3′-bipyridin]-6′-yl}-1H-pyrazolo[3,4-b]pyridin-5-yl)-N-[cis-3-methoxycyclobutyl]-6,7,8,9-tetrahydro-5H-benzo[7]annulen-7-amine] the pIC50 (Axl) was > 7.00 and the pIC50 (p-AXL) was > 7.00.

In the case of Cc1ccc(C)c(-c2ccc(-c3n[nH]c4ncc(-c5ccc6c(c5)CC[C@@H](N5CCCC5)CC6)cc34)cc2)n1 [Example 139, 3,6-Dimethyl-2-(4-{5-[(7S)-7-(pyrrolidin-1-yl)-6,7,8,9-tetrahydro-5H-benzo[7]annulen-2-yl]-1H-pyrazolo[3,4-b]pyridin-3-yl}phenyl)pyridine], the pIC50 (Axl) was > 7.00 and the pIC50 (p-AXL) was > 7.00.

With Cn1ncnc1-c1ccc(-c2c[nH]c3ncc(-c4ccc5c(c4)CC[C@@H](N4C6COCC4C6)CC5)cc23)cc1 [Example 133, 6-[(7S)-2-{3-[4-(1-Methyl-1H-1,2,4-triazol-5-yl)phenyl]-1H-pyrrolo[2,3-b]pyridin-5-yl}-6,7,8,9-tetrahydro-5H-benzo[7]annulen-7-yl]-3-oxa-6-azabicyclo[3.1.1]heptane] the pIC50 (Axl) was > 7.00 and the pIC50 (p-AXL) was > 7.00.

In the case of Cc1ccc(C)c(-c2ccc(-c3c[nH]c4ncc(-c5ccc6c(c5)CC[C@@](C)(N5CCC[C@H]5C)CC6)cc34)cc2)n1 [Example 147, 3,6-Dimethyl-2-(4-{5-[(7S)-7-methyl-7-[(2R)-2-methylpyrrolidin-1-yl]-6,7,8,9-tetrahydro-5H-benzo[7]annulen-2-yl]-1H-pyrrolo[2,3-b]pyridin-3-yl}phenyl)pyridine], the pIC50 (Axl) was > 7.00 and the pIC50 (p-AXL) was > 7.00.

Cc1ccc(C(F)(F)F)nc1-c1ccc(-c2c[nH]c3ncc(-c4ccc5c(c4)CC[C@@H](N4C6COC[C@H]4C6)CC5)cc23)cc1 [Example 146, (1R)-6-[(7S)-2-(3-{4-[3-Methyl-6-(trifluoromethyl)pyridin-2-yl]phenyl}-1H-pyrrolo[2,3-b]pyridin-5-yl)-6,7,8,9-tetrahydro-5H-benzo[7]annulen-7-yl]-3-oxa-6-azabicyclo[3.1.1]heptane] was tested, and the pIC50 (Axl) was > 7.00 and the pIC50 (p-AXL) was 6.00 to 7.00.

For Cc1cccnc1-c1ccc(-c2n[nH]c3ncc(-c4ccc5c(c4)CC[C@@H](N[C@H]4CCCOC4)CC5)cc23)nc1 [Example 106, (3S)—N-[(7S)-2-(3-{3-Methyl-[2,3′-bipyridin]-6′-yl}-1H-pyrazolo[3,4-b]pyridin-5-yl)-6,7,8,9-tetrahydro-5H-benzo[7]annulen-7-yl]oxan-3-amine], the pIC50 (Axl) was > 7.00 and the pIC50 (p-AXL) was > 7.00.

In the case of Cc1ccc(C)c(-c2ccc(-c3c[nH]c4ncc(-c5ccc6c(c5)CC[C@@H](N5C7COCC5C7)CC6)cc34)cc2)n1 [Example 137, 6-[(7S)-2-{3-[4-(3,6-Dimethylpyridin-2-yl)phenyl]-1H-pyrrolo[2,3-b]pyridin-5-yl}-6,7,8,9-tetrahydro-5H-benzo[7]annulen-7-yl]-3-oxa-6-azabicyclo[3.1.1]heptane], the pIC50 (Axl) was > 7.00 and the pIC50 (p-AXL) was > 7.00.

For Cc1ccc(C(F)(F)F)nc1-c1ccc(-c2n[nH]c3ncc(-c4ccc5c(c4)CC[C@@H](N4C6COC[C@H]4C6)CC5)cc23)cc1 [Example 145, (1R)-6-[(7S)-2-(3-{4-[3-Methyl-6-(trifluoromethyl)pyridin-2-yl]phenyl}-1H-pyrazolo[3,4-b]pyridin-5-yl)-6,7,8,9-tetrahydro-5H-benzo[7]annulen-7-yl]-3-oxa-6-azabicyclo[3.1.1]heptane], the pIC50 (Axl) was > 7.00 and the pIC50 (p-AXL) was 6.00 to 7.00.

For Cc1ccc(C(C)(C)O)nc1-c1ccc(-c2n[nH]c3ncc(-c4ccc5c(c4)CC[C@@H](N4C6COCC4C6)CC5)cc23)cc1 [Example 192, 2-[5-Methyl-6-(4-{5-[(7S)-7-{3-oxa-6-azabicyclo[3.1.1]heptan-6-yl}-6,7,8,9-tetrahydro-5H-benzo[7]annulen-2-yl]-1H-pyrazolo[3,4-b]pyridin-3-yl}phenyl)pyridin-2-yl]propan-2-ol], the pIC50 (Axl) was > 7.00 and the pIC50 (p-AXL) was 6.00 to 7.00.

Cc1ccc(N2CCCC2=O)c(-c2ccc(-c3n[nH]c4ncc(-c5ccc6c(c5)CC[C@@H](N5C7COCC5C7)CC6)cc34)cc2)n1 [Example 198, 1-[6-Methyl-2-(4-{5-[(7S)-7-{3-oxa-6-azabicyclo[3.1.1]heptan-6-yl}-6,7,8,9-tetrahydro-5H-benzo[7]annulen-2-yl]-1H-pyrazolo[3,4-b]pyridin-3-yl}phenyl)pyridin-3-yl]pyrrolidin-2-one] was tested, and the pIC50 (Axl) was > 7.00 and the pIC50 (p-AXL) was 6.00 to 7.00.

With Cc1cccnc1-n1cc(-c2c[nH]c3ncc(-c4ccc5c(c4)CC[C@@H](N4C6COCC4C6)CC5)cc23)cn1 [Example 27, 6-[(7S)-2-{3-[1-(3-Methylpyridin-2-yl)-1H-pyrazol-4-yl]-1H-pyrrolo[2,3-b]pyridin-5-yl}-6,7,8,9-tetrahydro-5H-benzo[7]annulen-7-yl]-3-oxa-6-azabicyclo[3.1.1]heptane] the pIC50 (Axl) was > 7.00 and the pIC50 (p-AXL) was > 7.00.
